Results taken from article PMC7552967, “Anti-Melanoma Activities of Artemisone and Prenylated Amino-Artemisinins in Combination With Known Anticancer Drugs” (Frontiers in Pharmacology, 2020).

Tests used:
A375 melanoma cells [1] = experiment: MTT cell viability assay, A375; type: cell-based, human; details: for IC50: MTT, 24 h, combinations 1:1
Description: (§1) The human cell lines TK10 (human kidney adenocarcinoma), UACC62 (human melanoma) and MCF7 (human breast adenocarcinoma) were obtained from the National Cancer Institute (NCI) as part of a panel widely studied for drug screening and molecular target identification. […] The nontumorigenic human immortalized keratinocyte (HaCaT) cells were a kind donation by the School of Anatomical Sciences, Faculty of Health Sciences, University of the Witwatersrand, South Africa. […] All reagents were of analytical grade and were obtained from Merck (Darmstadt, Germany) unless stated otherwise. Cells were cultured in Dulbecco’s modified essential medium (DMEM; Hyclone, GE healthcare, South Logan, UT, USA) containing 10% fetal bovine serum (FBS), 1% penicillin/streptomycin, 1% 200 mM L-Glutamine and 1% nonessential amino acids (Lonza, Basel, Switzerland) at 37°C in a humidified atmosphere of 5% CO2. Stock solutions of the compounds were prepared in dimethyl sulfoxide (DMSO). All subsequent dilutions were prepared in serum-free DMEM and vehicle controls were included in all experiments
(§2) The growth inhibitory effects of the compounds were tested in the 3-cell line panel consisting of TK10 (renal), UACC62 (melanoma) and MCF7 (breast) cancer cells by Sulforhodamine B (SRB) assay. […] Compounds prepared in DMSO were tested at 0.01–100 µM serial dilutions to establish initial inhibitory concentrations. […] After 24 h exposure to compounds, growth medium was removed, cells rinsed twice with 1 ml of phosphate buffered saline (PBS) and 100 µl fresh serum-free medium containing 5 mg/ml MTT solution was added MTT solution was prepared fresh for each analysis). Cells were then incubated for 4 h at 37°C, after which the MTT was removed and substituted with 100 µl dimethyl sulfoxide (DMSO) to dissolve the formazan crystals for an h at 37°C. After incubation, cell viability was determined using a microplate reader (BioTek®, Vermont, USA) at an excitation wavelength of 560 nm and emission wavelength of 630 nm with DMSO measured as a blank. Cell viability was expressed as a percentage relative to the untreated control, which is assumed to be 100% viable. For a positive control, cells were treated with 0.01% Triton-X 100 (Sigma-Aldrich, St Louis, MO, USA) for a period of 4 h. Using the MTT assay data, IC50 values were calculated using GraphPad Prism 8. Data were normalized to the positive (alleged to be 0% viable) and negative controls (presumed to be 100% viable), followed by the log-transformation of the concentration values. […] A crude therapeutic index (fold decrease in IC50 value) was calculated as the IC50 of the noncancerous cell-line/IC50 of the cancerous cell line. […] Drug interactions were evaluated for synergism, additivity or antagonism using multiple drug effect analysis, based on the median-principle. Cells were treated with the drug combinations for 24 h and analyzed. The CompuSyn (ComboSyn, Inc. NJ, USA) software package was used to generate the median-effect plots and combination index plots. […] All experiments were performed at least in triplicate and repeated independently.
(§3) Next, the quantitative colorimetric MTT assay was used to determine in vitro cell viability with A375 (melanoma) and HaCat (nonmalignant keratinocyte) cells. […] The IC50 was used to determine a crude therapeutic index (fold increase or decline in IC50).

[2] = tested on: HaCat normal keratinocytes; experiment: MTT cell viability assay, HaCat; type: cell-based, human; details: 24 h; for CC50: Homo sapiens, HaCaT, combinations 1:1, mean ± SD, read-out: HaCat IC50
Description: as §1, §2, §3

[3] = tested on: HaCat normal keratinocytes; experiment: LDH release membrane integrity assay, HaCat; details: compounds at their IC50 concentrations, 24 h; combinations 1:1; relative to maximum release
Description: (§4) In order to determine cell membrane integrity, the CytoTox-ONE™ Homogeneous Membrane Integrity Assay (Promega, Madison, WO, USA) was employed. This fluorometric assay measures the release of LDH from cells with damaged cell membranes. […] The manufacturer’s instructions were followed to determine the fluorescence at an excitation wavelength of 560 nm and an emission wavelength of 590 nm. In order to calculate the percentage cytotoxicity, the average fluorescent values of the background medium were subtracted from all average fluorescent values of the experimental samples and the positive control. Cytotoxicity is expressed as a percentage relative to the positive control, which is assumed to be responsible for 100% LDH release. The fold increase in LDH release was taken as the indication of the selectivity toward melanoma cell membranes, calculated as the […]. All experiments were performed at least in triplicate and independently repeated. Statistical significant differences were calculated with one-way ANOVA.
(§5) Results are expressed relative to the untreated control and the maximum release sample, which was set as having 0% and 100% LDH release respectively. The LDH released from the nonmalignant HaCat cells and the A375 melanoma cells was then used to deduce the selectivity of the compounds against melanoma cell membranes.

A375 melanoma cells [4] = experiment: LDH release membrane integrity assay, A375; type: cell-based, human; details: for LDH release, result in words: IC50 concentrations, 24 h (Table 3, Figure 6C); for A375 (% LDH release): compounds at their IC50 concentrations, 24 h, combinations 1:1, relative to maximum release
Description: as §4, §5

[5] = tested on: HaCat normal keratinocytes; experiment: Intracellular ROS, DCFH-DA assay, HaCat; type: cell-based, human; details: 12 h treatment, result in words
Protocol: HaCat and A375 cells were seeded at 25,000 cells/well in 96-well plates (Black plate, Clear bottom, Corning, Costar®, NY, USA) and incubated until cells were ~90% confluent. Serum-free DMEM without phenol red (Thermo Fisher Scientific, Gibco, Carlsbad, CA, USA) was used for all experiments. Cells were exposed to compounds or H2O2 (500 µM) for 12 h. Cell staining with ROS fluorescent indicator 2’,7’-dichlorodihydrofluorescein diacetate (DCFH-DA) was performed 1.5 h before the end of the 12-h exposure time. A kinetic analysis was then performed at 37°C using a microplate reader (SpectraMax® ParadigmTM Molecular Devices, Sunnyvale, CA, USA) by measuring the DCF fluorescence (excitation 485 nm and emission 535 nm) every 10 min for 1 h. […] The Bradford assay (Coomassie blue colorimetric method) was then performed in order to determine the relative amount of protein per well, as an indication of cell number per well, and all fluorescence measurements were normalized relative to the cell number. The background fluorescence produced by blank medium controls and unstained but treated cell controls were subtracted from DCFH-DA stained cells. The DCF fluorescence measured at the beginning of the analysis (time 0) was subtracted from the DCF fluorescence at the indicated times for the kinetic analysis (results not shown). […]
The levels of intracellular ROS were determined using the DCFH-DA assay. […]

HaCat (% LDH release) [3] | IC50 (A375 melanoma cells [1]; Homo sapiens, A-375, mean ± SD) | Structure (SMILES) | Therapeutic index (TI) (A375 melanoma cells [1]; IC50 of HaCat cells/IC50 of A375 cells) | IC50 (A375 melanoma cells [1]; results from elesclomol-Cu(II) reported in nM) | IC50 ([2]; results from elesclomol-Cu(II) reported in nM, combinations 1:1) | LDH release, result in words (A375 melanoma cells [4]) | A375 (% LDH release) (A375 melanoma cells [4]) | Fold increase in LDH release (A375 melanoma cells [4]; selectivity toward melanoma cell membranes, A375 vs HaCat) | Intracellular ROS (DCF fluorescence fold change vs untreated control) [5] | CC50 [2]
7 ± 0.31% | 43700 ± 1370 nM | COc1cc([C@@H]2c3cc4c(cc3[C@@H](O[C@@H]3O[C@@H]5CO[C@@H](C)O[C@H]5[C@H](O)[C@H]3O)[C@H]3COC(=O)[C@H]23)OCO4)cc(OC)c1O [Etoposide 9, etoposide] |  |  |  | did not significantly increase the release of LDH | 11 ± 0.56% |  |  | > 13000 µM
35 ± 1.02% | 569800 ± 2950 nM | O=C(O)c1cc(/N=N/c2ccc(S(=O)(=O)Nc3ccccn3)cc2)ccc1O [Sulfasalazine 8, sulfasalazine] |  |  |  | did not significantly increase the release of LDH | 21 ± 0.96% |  |  | 2223 ± 5.37 µM

Structure (SMILES) | HaCat (% LDH release) [3] | IC50 (A375 melanoma cells [1]; Homo sapiens, A-375, mean ± SD) | Therapeutic index (TI) (A375 melanoma cells [1]; IC50 of HaCat cells/IC50 of A375 cells) | IC50 (A375 melanoma cells [1]; results from elesclomol-Cu(II) reported in nM) | IC50 ([2]; results from elesclomol-Cu(II) reported in nM, combinations 1:1) | LDH release, result in words (A375 melanoma cells [4]) | A375 (% LDH release) (A375 melanoma cells [4]) | Fold increase in LDH release (A375 melanoma cells [4]; selectivity toward melanoma cell membranes, A375 vs HaCat) | Intracellular ROS (DCF fluorescence fold change vs untreated control) [5] | CC50 [2]
CN([N-]C(=O)CC(=O)[N-]N(C)C(=[SH+])c1ccccc1)C(=[SH+])c1ccccc1.[Cu] [Elesclomol-Cu(II) 1-Cu, elesclomol-Cu(II)] | 16 ± 0.79% |  | 2.8 | 1.72 ± 0.23 nM | 4.88 ± 0.56 nM | did not significantly increase the release of LDH | 21 ± 0.94% | 1.3 | no significant increased intracellular ROS | 
